# Measurements: patent publication EP1433789A1, “Pyrrolopyrazines and their use as selective apoptosis inducers” (Aponetics AG, priority 2002, dated 2004)
# Legend:
# [1] = tested on: HeLa; assay: Hoechst 33342 nuclear staining (Table 3); assay type: cell-based, human; parameters: key: 0 relating to no activity; 1 relating to weak activity comprising less than 50% of the cells; score 2 relating to strong activity comprising more than 50% of the cells
# Protocol: (§1) This assay is performed in 96 well tissue culture plates. Appropriate number of cells (adherent cells: 3 - 5*10^3, suspension cells: 8 - 10*10^3) are being seeded out in 80 µl complete medium. Adherent cells are incubated for 24 h for proper spreading out before addition of test compounds while suspension cells are immediately treated with test compounds after seeding out. The test compounds are added in 20 µl complete medium containing max 5% DMSO. The final compound concentrations in the assays are 10 µM, 3 µM,1 µM and 0.3 µM, respectively. After 24 h or 48 h incubation at culture conditions, 10 µl medium containing Hoechst 33342 dye (Sigma B-2261) at 2-5 µg/ml are added to each well. The assay plates are then further incubated for 30 minutes and subsequently analyzed with a standard inverted fluorescence microscope. The readout allows the determination of the fraction of apoptotic nuclei as well as other morphological criteria specific for apoptosis as a function of the treatment. The following scores are used: 0 relating to no activity, 1 relating to weak activity comprising less than 50% of the cells and score 2 relating to strong activity comprising more than 50% of the cells.
# [2] = tested on: Jurkat; assay: Hoechst 33342 nuclear staining (Table 3); assay type: cell-based, human; parameters: key: 0 relating to no activity; 1 relating to weak activity comprising less than 50% of the cells; score 2 relating to strong activity comprising more than 50% of the cells
# Protocol: as §1
# [3] = tested on: K562; assay: Hoechst 33342 nuclear staining (Table 3); assay type: cell-based, human; parameters: key: 0 relating to no activity; 1 relating to weak activity comprising less than 50% of the cells; score 2 relating to strong activity comprising more than 50% of the cells
# Protocol: as §1
# [4] = tested on: KB; assay: Hoechst 33342 nuclear staining (Table 3); assay type: cell-based, human; parameters: key: 0 relating to no activity; 1 relating to weak activity comprising less than 50% of the cells; score 2 relating to strong activity comprising more than 50% of the cells
# Protocol: as §1
# [5] = tested on: A20; assay: MTS proliferation assay; assay type: cell-based; conditions: Mus musculus, A20, 72 h incubation
# Protocol: (§2) The assay is performed in 96 well tissue culture plates. The cells (range : 1.5*10^3-10^4) are seeded out in 80 µl complete medium 24 h prior to compound treatment. The test compounds are added in 20 µl complete medium containing max 5% DMSO. The final compound concentrations in the assays are 10 µM, 3 µM,1 µM and 0.3 µM, respectively. The assay plates are incubated for 72 h at culture conditions. The MTS reagent is prepared according to the manufacturer's protocol (Promega G1111 ). 20 µl MTS reagent are added to each well, the assay plates are quickly spun and incubated for another 3 h at culture conditions. Subsequently, the plates are shortly shaked and absorption measured with a microplate-reader at 492 nm.
# [6] = tested on: HeLa; assay: MTS proliferation assay; assay type: cell-based; conditions: Homo sapiens, 72 h incubation
# Protocol: as §2
# [7] = tested on: K562; assay: MTS proliferation assay; assay type: cell-based; conditions: Homo sapiens, K562, 72 h incubation
# Protocol: as §2
# [8] = tested on: HeLa; assay: AnnexinV/7-AAD staining; assay type: cell-based, human; conditions: 10 µM, 24 h treatment
# Protocol: (§3) Adherent cells (1 - 2*10^5) are 24 h prior to compound treatment seeded into 24 well tissue culture plates. Suspension cells are pipetted into P-tubes immediately before treatment. Test compounds are added leading to a final concentrations of 10 µM. After 24 h treatment cells are harvested (in case of adherent cells by trypsinization) and transferred to FACS tubes (BD Biosciences). After centrifugation and removal of the supernatant, 100 µl complete medium containing AnnexinV-GST (10 µg) is added, mixed and incubated at 4°C for 30 minutes. Subsequently, the cells are washed once with medium and incubated with 100 µl anti-GST Alexa 488 (Molecular Probes A-11131) in medium diluted 1:500 for 30 minutes at 4°C. Then, cells are washed once and stained with 1 µg/ml 7-aminoactinomycin D (7-AAD) (Molecular Probes A-1310) in 250 µl medium and analyzed on the FACSCalibur™. AnnexinV is measured in FL1 whereas 7-AAD is measured in FL3. In Table 5 the percentage of positively stained cells after treatment with the respective compounds are indicated. The following scores are used: Score 0 relates to less than 10%, score 1 relates to more than 10% but less than 50% and score 2 relates to more than 50% positivity.
# [9] = tested on: Jurkat; assay: AnnexinV/7-AAD staining; assay type: cell-based, human; conditions: 10 µM, 24 h treatment
# Protocol: as §3
# [10] = tested on: Ramos; assay: AnnexinV/7-AAD staining; assay type: cell-based, human; conditions: 10 µM, 24 h treatment
# Protocol: as §3
# [11] = tested on: A20; assay: AnnexinV/7-AAD staining; assay type: cell-based, mouse; conditions: A20, 10 µM, 24 h treatment
# Protocol: as §3
# [12] = tested on: HeLa; assay: PI staining for cell cycle distribution; assay type: cell-based, human; parameters: key: 0 indicates no occurrence at all; 1 for weak; 2 for strong occurrence; conditions: HeLa 10 µM, 24 h
# Protocol: (§4) 1 - 2*10^5 cells are seeded into 24 well tissue culture plates and incubated for 24 h prior to compound addition. Compounds are added for 24 h in a final concentration of 3 µM or 10 µM. Adherent cells are harvested by trypsinization. The cell suspensions are fixed by adding 2 parts ice cold ethanol 100% while vortexing. Then the samples are stored for > 2 h at-20°C. Subsequently the cells are washed with PBS once and resuspended in 250 µl PBS containing 50 µg/ml PI (Calbiochem # 537059), then the samples are incubated at 37°C for 30 minutes and subsequently analyzed on a FACSCalibur™ monitoring linear PI fluorescence activity on FL2.. The readout allows the detection of a possible direct or indirect influence of the tested compounds on the cell cycle. The following events can occur: a) Generation of a subG1 peak indicative for DNA fragmentation, b) increase of the cell population arrested in G2M phase. Both events are scored by 1 for weak and 2 for strong occurrence. 0 indicates no occurrence at all. […]
# [13] = tested on: Jurkat; assay: PI staining for cell cycle distribution; assay type: cell-based, human; parameters: key: 0 indicates no occurrence at all; 1 for weak; 2 for strong occurrence; conditions: Jurkat 3 uM, 24 h
# Protocol: as §4
smiles,measurement,setting,value
COc1cc2c(cc1OC)-c1cc3nc4ccccc4nc3n1C(C)C2 (stereo not drawn) [compound 8],Hoechst 33342 nuclear staining,"[1]; 24h, conc 0.3 (µM)",0
same,Hoechst 33342 nuclear staining,"[1]; 24h, conc 1 (µM)",0
same,Hoechst 33342 nuclear staining,"[1]; 24h, conc 3 (µM)",0
same,Hoechst 33342 nuclear staining,"[1]; 24h, conc 10 (µM)",0
same,Hoechst 33342 nuclear staining,"[1]; 48h, conc 0.3 (µM)",0
same,Hoechst 33342 nuclear staining,"[1]; 48h, conc 1 (µM)",0
same,Hoechst 33342 nuclear staining,"[1]; 48h, conc 3 (µM)",1 (1 relating to weak activity comprising less than 50% of the cells)
same,Hoechst 33342 nuclear staining,"[1]; 48h, conc 10 (µM)",2 (score 2 relating to strong activity comprising more than 50% of the cells)
same,Hoechst 33342 nuclear staining,"[2]; 24h, conc 0.3 (µM)",1 (1 relating to weak activity comprising less than 50% of the cells)
same,Hoechst 33342 nuclear staining,"[2]; 24h, conc 1 (µM)",1 (1 relating to weak activity comprising less than 50% of the cells)
same,Hoechst 33342 nuclear staining,"[2]; 24h, conc 3 (µM)",2 (score 2 relating to strong activity comprising more than 50% of the cells)
same,Hoechst 33342 nuclear staining,"[2]; 24h, conc 10 (µM)",2 (score 2 relating to strong activity comprising more than 50% of the cells)
same,Hoechst 33342 nuclear staining,"[2]; 48h, conc 0.3 (µM)",1 (1 relating to weak activity comprising less than 50% of the cells)
same,Hoechst 33342 nuclear staining,"[2]; 48h, conc 1 (µM)",2 (score 2 relating to strong activity comprising more than 50% of the cells)
same,Hoechst 33342 nuclear staining,"[2]; 48h, conc 3 (µM)",2 (score 2 relating to strong activity comprising more than 50% of the cells)
same,Hoechst 33342 nuclear staining,"[2]; 48h, conc 10 (µM)",2 (score 2 relating to strong activity comprising more than 50% of the cells)
same,Hoechst 33342 nuclear staining,"[3]; K562, 24h, conc 0.3 (µM)",0
same,Hoechst 33342 nuclear staining,"[3]; K562, 24h, conc 1 (µM)",0
same,Hoechst 33342 nuclear staining,"[3]; K562, 24h, conc 3 (µM)",0
same,Hoechst 33342 nuclear staining,"[3]; K562, 48h, conc 0.3 (µM)",0
same,Hoechst 33342 nuclear staining,"[3]; K562, 48h, conc 1 (µM)",2 (score 2 relating to strong activity comprising more than 50% of the cells)
same,Hoechst 33342 nuclear staining,"[3]; K562, 48h, conc 3 (µM)",2 (score 2 relating to strong activity comprising more than 50% of the cells)
same,Hoechst 33342 nuclear staining,"[3]; K562, 48h, conc 10 (µM)",2 (score 2 relating to strong activity comprising more than 50% of the cells)
same,Hoechst 33342 nuclear staining,"[4]; 24h, conc 0.3 (µM)",0
same,Hoechst 33342 nuclear staining,"[4]; 24h, conc 1 (µM)",0
same,Hoechst 33342 nuclear staining,"[4]; 24h, conc 3 (µM)",0
same,Hoechst 33342 nuclear staining,"[4]; 24h, conc 10 (µM)",0
same,Hoechst 33342 nuclear staining,"[4]; 48h, conc 0.3 (µM)",0
same,Hoechst 33342 nuclear staining,"[4]; 48h, conc 1 (µM)",0
same,Hoechst 33342 nuclear staining,"[4]; 48h, conc 3 (µM)",0
same,Hoechst 33342 nuclear staining,"[4]; 48h, conc 10 (µM)",0
same,IC50,[5],1 to 10 µM
same,IC50,[6],1 to 10 µM
same,IC50,[7],> 10 µM
same,percentage of positively stained cells (AnnexinV/7-AAD staining),[8],1 (score 1 relates to more than 10% but less than 50%)
same,percentage of positively stained cells (AnnexinV/7-AAD staining),[9],0 (Score 0 relates to less than 10%)
same,percentage of positively stained cells (AnnexinV/7-AAD staining),[10],0 (Score 0 relates to less than 10%)
same,percentage of positively stained cells (AnnexinV/7-AAD staining),[11],0 (Score 0 relates to less than 10%)
same,G2M (increase of the cell population arrested in G2M phase),[12],0
same,subG1 (generation of a subG1 peak indicative for DNA fragmentation),[12],1
same,G2M (increase of the cell population arrested in G2M phase),[13],0
same,subG1 (generation of a subG1 peak indicative for DNA fragmentation),[13],1
